Data on 21 molecules can be found in patent publication US9527805B2, “Small molecules as epigenetic modulators of lysine-specific demethylase 1 and methods of treating disorders” (priority 2010, dated 2016).

The structures appear in SMILES notation. Like-named read-outs stand apart in the source and are kept apart here.

As usually defined, the remaining activity is what remains of the control signal, in per cent.

In assay [1] the test system is H3K4me2 in the P19 cell line. The conditions noted are these: cited from earlier work.
The subject of assay [2] is HCT116 human colon tumor xenograft. The experiment in a line: HCT116 human colon tumor xenograft model. The assay is classed as in vivo, athymic nu/nu Fox Chase mice. As to conditions: 2 mg/kg, 5 times a week over 38 days. In general terms: A xenograft is tissue or cells of one species grown in another, often human tumour cells in immunodeficient mice.
Procedure: Previously, various polyaminobiguanidides were evaluated in an HCT116 human colon tumor xenograft model in athymic nu/nu Fox Chase mice. Mice were treated with polyaminobiguanidides, 5-azacytidine (5-AC) or a combination of the two agents. Drugs were administered 5 times a week over a period of 38 days.
Assay [3] concerns the target T1, recombinant human LSD1 (Homo sapiens, UniProt O60341).
T1 construct: Full-length human LSD1 cDNA was subcloned into the pET15b bacterial expression vector; 6xHis (N); made in house; host or cells: Escherichia coli BL21(DE3)
The assay can be described thus: LSD1 demethylase assay, luminol-dependent chemiluminescence (H2O2 production), H3K4me2 (1-21 aa) peptide substrate. In kind it is biochemical. As to conditions: compound at 10 μM. How it is done: Full-length human LSD1 cDNA was subcloned into the pET15b bacterial expression vector (Novagen, Madison, Wis.) in frame with an N-terminal 6×HIS-tag and transformed into the BL21(DE3) strain of Escherichia coli. Following selection, expression and purification of recombinant LSD1 protein were performed as previously described. Briefly, expression of LSD1-HIS protein was induced by 1 mM IPTG for 6 h at 25° C. The HIS-tagged protein was purified using Ni-NTA affinity purification resin and column as recommended by the manufacturer (Qiagen, Valencia, Calif.). Bound protein was eluted by imidazole and the eluate was dialyzed in PBS at 4° C. Enzymatic activity of LSD1 was examined using luminol-dependent chemiluminescence to measure the production of H2O2, as previously described. In brief, LSD1 activity was assayed in 50 mM Tris, pH 8.5, 50 mM KCl, 5 mM MgCl, 5 nmol luminol, and 20 μg/ml horseradish peroxidase with the indicated concentrations of H3K4me2 (1-21 aa) peptide as substrate. The integral values were calibrated against standards containing known concentrations of H2O2, and the activities expressed as pmols H2O2/mg protein/min. Reaction mixtures were incubated with or without 5 μg purified LSD1 in 50 mM Tris, pH 8.5, 50 mM KCl, 5 mM MgCl, 0.5% BSA, and 5% glycerol for 3 hr at 37° C. This reaction mixture was analyzed by Western blotting using antibodies (Millipore) that specifically recognize the dimethyl group of H3K4.

The test system of assay [4] is H3K4me2. The assay can be described thus: H3K4me2 level by Western blotting of nuclear fractions. The assay is classed as cell-based. The conditions noted are these: Homo sapiens. On the procedure:
Synthetic H3K4me2 peptides were purchased from Millipore (Billerica, Mass.). Calu-6 cells were maintained in RPMI medium, both supplemented with 10% fetal bovine serum (Gemini Bio-Products, Woodland, Calif.) and grown at 37° C. in 5% CO2 atmosphere.
Cytoplasmic and nuclear fractions were prepared for Western blot analysis using the NE-PER™ Nuclear and Cytoplasmic Extraction Kit (Pierce, Rockford, Ill.). Primary antibodies against H3K4me2 were from Millipore. The pCNA monoclonal antibody was purchased from Oncogene Research Products (Cambridge, Mass.). Dye-conjugated secondary antibodies were used for quantification of Western blot results using the Odyssey Infrared Detection system and software (LI-COR Biosciences, Lincoln, Nebr.).
For orientation: In western blotting, separated proteins are transferred to a membrane and probed.

The target in assay [5] is recombinant LSD1/CoRest complex (Homo sapiens, UniProt O60341). As to conditions: cited from earlier work.
Where [6] appears, read: 24 h, read-out: H3K4me2 Fold Increase (24 h).
[7] abbreviates: 48 h, read-out: H3K4me2 Fold Increase (48 h).

On to `N[C@@H]1C[C@H]1c1ccccc1` (racemic) [tranylcypromine], for which the “effect on global levels of H3K4me2 (in words)” value in assay [1] is recorded as “increase global levels of H3K4me2”.

As to `Nc1ncn([C@@H]2O[C@H](CO)[C@@H](O)[C@H]2O)c(=O)n1` [Entry 5-AC, 5-azacytidine], the “reduction of tumor growth” value in assay [2] is “about 50%”. As to `O=C(O)CC(=O)Nc1ccccc1F` [Entry 33], the remaining activity at 10 µM in assay [3] worked out at 98.2%. For the same molecule, the results for the fold induction at 5 µM in assay [4] (setting [6]) and in assay [4] (setting [7]) were 1.81 and 3.15, respectively. Besides, the fold induction at 10 µM is 1.5 in assay [4] (setting [6]) and 1.09 in assay [4] (setting [7]).

As for `O=C(O)CCC(=O)Nc1ccccc1F` [Entry 34], the remaining activity at 10 µM in assay [3] turned out to be 92.6%. Same read-out and setting: for `O=C(O)CCCC(=O)Nc1ccccc1F` [Entry 35] the value was 100%. Same read-out and setting: the value for `O=C(O)CCCCC(=O)Nc1ccccc1F` [Entry 36] was 76.4%. The same measure, in the same setting: for `O=C(O)CCCCCC(=O)Nc1ccccc1F` [Entry 37] the value was 95.9%. On to `COC(=O)[C@@H](N)CCCCNC(=O)CC(=O)Nc1ccccc1F` [Entry 38], for which, in assay [3], the remaining activity at 10 µM was 88.4%. Moreover, the fold induction at 5 µM was 0.3 in assay [4] (setting [6]) and 0.7 in assay [4] (setting [7]). Moreover, the fold induction at 10 µM amounted to 0.2 in assay [4] (setting [6]) and 5.6 in assay [4] (setting [7]).

Take `COC(=O)[C@H](CCCCNC(=O)NC(c1ccccc1)c1ccccc1)NC(=O)CC(=O)Nc1ccccc1F` [Entry 39]: in assay [3], the remaining activity at 10 µM came to 100%. On to `COC(=O)[C@H](CCCCNC(=O)NCC(c1ccccc1)c1ccccc1)NC(=O)CC(=O)Nc1ccccc1F` [Entry 40], for which, in assay [3], the remaining activity at 10 µM is 100%.

In the case of `COC(=O)[C@H](CCCCNC(=O)NCCC(c1ccccc1)c1ccccc1)NC(=O)CC(=O)Nc1ccccc1F` [Entry 41], the remaining activity at 10 µM in assay [3] was 100%. Turning to `COC(=O)[C@H](CCCCNC(=S)NC(c1ccccc1)c1ccccc1)NC(=O)CC(=O)Nc1ccccc1F` [Entry 42], in assay [3], the remaining activity at 10 µM was found to be 100%. In addition, in assay [4] (setting [6]), the fold induction at 5 µM turned out to be 49.1 and the fold induction at 10 µM is 60.6. For the same molecule, in assay [4] (setting [7]), the fold induction at 5 µM worked out at 0.5 and the fold induction at 10 µM is 3.

For `COC(=O)[C@H](CCCCNC(=S)NCC(c1ccccc1)c1ccccc1)NC(=O)CC(=O)Nc1ccccc1F` [Entry 43], in assay [3], the remaining activity at 10 µM was determined as 100%. For the molecule `COC(=O)[C@H](CCCCNC(=S)NCCC(c1ccccc1)c1ccccc1)NC(=O)CC(=O)Nc1ccccc1F` [Entry 44], the remaining activity at 10 µM in assay [3] is 100%. The same measure, in the same setting: the value for `C#CCN(CC#C)CCCC[C@H](NC(=O)CC(=O)Nc1ccccc1F)C(=O)OC` [Entry 45] was 84.1%; that for `C#CCNCCCC[C@H](NC(=O)CC(=O)Nc1ccccc1F)C(=O)OC` [Entry 46] was 90.4%. As to `C#CCN(CC#C)CCCC[C@H](NC(=O)CCC(=O)Nc1ccccc1F)C(=O)OC` [Entry 47], the remaining activity at 10 µM in assay [3] came to 92.4%. The same measure, in the same setting: the value for `C#CCN(CC#C)CCCC[C@H](NC(=O)CCCC(=O)Nc1ccccc1F)C(=O)OC` [Entry 48] was 100%; that for `C#CCN(CC#C)CCCC[C@H](NC(=O)CCCCC(=O)Nc1ccccc1F)C(=O)OC` [Entry 49] was 100%; that for `C#CCN(CC#C)CCCC[C@H](NC(=O)CCCCCC(=O)Nc1ccccc1F)C(=O)OC` [Entry 50] was 100%. Consider `NNCCc1ccccc1` [phenelzine], for which the “effect on global levels of H3K4me2 (in words)” value in assay [1] is “increase global levels of H3K4me2”. In assay [5], the “effect on nucleosomal demethylation (in words)” value is “inactivate nucleosomal demethylation”.
